Results reported in US8912128B2 (priority 2012, dated 2014).
Where “and” joins values, the source holds several entries; their conditions need not be identical. Identical values can stand only once.

Experiments:
[1] = target: cholera toxin secreted from Vibrio cholerae culture (Vibrio cholerae serotype O1, UniProt P01556)
[2] = target: whole cholera toxin (ctxAB5) (Vibrio cholerae serotype O1, UniProt P01556); format: binding
Chain of whole cholera toxin (ctxAB5) (P01556 whole entry, looked up): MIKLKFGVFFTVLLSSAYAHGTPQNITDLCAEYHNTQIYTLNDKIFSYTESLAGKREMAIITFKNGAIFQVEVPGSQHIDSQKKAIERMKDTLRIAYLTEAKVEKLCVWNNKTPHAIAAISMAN

Chain of cholera toxin secreted from Vibrio cholerae culture (P01556 whole entry, looked up): as above

| Substance | fluorescence signal with Vibrio cholerae culture [1] | coefficient of determination of linear relation between fluorescence intensity and whole cholera toxin concentration [2] | limit of detection (LOD) of cholera toxin determined from the dose-response curve [2] | visual limit of detection (LOD) of cholera toxin [2] | whole cholera toxin concentration at which fluorescence intensity was saturated [2] [µg/mL] |
| --- | --- | --- | --- | --- | --- |
| GM1 pentasaccharide | high fluorescence intensity | 0.9935 | 2 ng/mL and 23 pM | 5 ng/mL and 57.5 pM | ≥ 1 |
| GM2 tetrasaccharide | high fluorescence intensity | – | – | 750 ng/mL | – |
| asialo GM1 tetrasaccharide | – | – | – | 1000 ng/mL | – |
